# Patent publication US8555897B2, “Method of making a cigarette and method of reducing cytotoxicity in tobacco smoke” (priority 2005, dated 2013)
# Where two headings read alike, the source gives them in different places.
# Legend:
# [1] = TPM mutagenicity of cigarette smoke
# [2] = Gas vapor phase (GVP) toxicity
# Text: Additionally, a control filler was sprayed with 20 g of deionized H2O. Next, the sprayed fillers were dried, conditioned and processed into handmade cigarettes.
# [3] = TPM cytotoxicity of cigarette smoke
# [4] = Table 1, filler additive 10.8% NH4OAc or 6.3% Co(NH3)6Cl3, vs water-sprayed control
# [5] = Table 4, NH4OAc alone: filler treatment scaled up to 300 g/batch
smiles,measurement,setting,value
"CC(=O)O.N [NH4OAc, ammonium acetate]","Mutagenicity, change (MS TPM)",[1]; [4],−11%
same,"Mutagenicity, change (TPM)",[1]; [5],9%
same,reduction in GVP toxicity,[2]; Table 3,29%
same,"GVP Toxicity, change","[2]; Table 3, change from control",−29%
same,"Cytotoxicity, change (MS TPM)",[3]; [4],−33%
same,"Cytotoxicity, change (TPM)",[3]; [5],−26%
"CC(=O)[O-].CC(=O)[O-].CC(=O)[O-].N.N.N.N.N.N.[Co+3] [Co(NH3)6(OAc)3, hexammine cobalt (III) acetate]","GVP Toxicity, change","[2]; Table 5, Co 1.3%, NH3 2.4%, glycerin 10% where present, vs water-sprayed control",−42%
same,"Cytotoxicity, change (TPM)",[3],−24%
same,TPM and GVP toxicity of cigarette smoke (in words),[3],significant reduction
"N.N.N.N.N.N.[Cl-].[Cl-].[Cl-].[Co+3] [Co(NH3)6Cl3, hexammine cobalt (III) chloride]","Cytotoxicity, change (MS TPM)",[3],−34%
